Literature values as cited in patent US20060286183A1, “Diet supplement for causing rapid weight loss, controlling appetite, managing stress, supporting relaxation, combating fatigue and supporting mental well-being” (priority 2005, published 2006).
Blank lines part the entries; values can stand above or below the compound they belong to.

Assays:
[1] = healthy women, three-day supplementation
[2] = system: forebrain ischemia; settings: ischemia maintained for 10 minutes
[3] = patients with mild to moderate psychosyndromes such as dementia
[4] = stroke patients
[5] = elderly patients
[6] = in vivo
[7] = target: glutamate dehydrogenase (Homo sapiens, UniProt P00367)
[8] = lean and obese rats
[9] = compared with vitamin C and E
[10] = target: T1, catechol-O-methyl-transferase (COMT) (Homo sapiens, UniProt P21964)
T1 sequence (P21964 1-271): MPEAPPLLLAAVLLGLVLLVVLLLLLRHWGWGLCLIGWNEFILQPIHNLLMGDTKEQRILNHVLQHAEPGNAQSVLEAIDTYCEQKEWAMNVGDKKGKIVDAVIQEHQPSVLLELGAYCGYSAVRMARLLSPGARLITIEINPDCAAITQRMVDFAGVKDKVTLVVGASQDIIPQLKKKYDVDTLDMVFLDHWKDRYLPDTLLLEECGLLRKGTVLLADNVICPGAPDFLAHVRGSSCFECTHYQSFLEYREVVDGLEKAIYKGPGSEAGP

[11] = system: ATP; settings: calorie restriction
[12] = rats
[13] = system: 5-alpha-reductase
[14] = humans
[15] = animals
[16] = during fatigue
[17] = not given; remark: listed apart in the source
[18] = obese rats
[19] = rat, administration of NOPE
[20] = target: T2, ATP:citrate lyase (Homo sapiens, UniProt P53396)
T2 sequence (P53396 1-1101): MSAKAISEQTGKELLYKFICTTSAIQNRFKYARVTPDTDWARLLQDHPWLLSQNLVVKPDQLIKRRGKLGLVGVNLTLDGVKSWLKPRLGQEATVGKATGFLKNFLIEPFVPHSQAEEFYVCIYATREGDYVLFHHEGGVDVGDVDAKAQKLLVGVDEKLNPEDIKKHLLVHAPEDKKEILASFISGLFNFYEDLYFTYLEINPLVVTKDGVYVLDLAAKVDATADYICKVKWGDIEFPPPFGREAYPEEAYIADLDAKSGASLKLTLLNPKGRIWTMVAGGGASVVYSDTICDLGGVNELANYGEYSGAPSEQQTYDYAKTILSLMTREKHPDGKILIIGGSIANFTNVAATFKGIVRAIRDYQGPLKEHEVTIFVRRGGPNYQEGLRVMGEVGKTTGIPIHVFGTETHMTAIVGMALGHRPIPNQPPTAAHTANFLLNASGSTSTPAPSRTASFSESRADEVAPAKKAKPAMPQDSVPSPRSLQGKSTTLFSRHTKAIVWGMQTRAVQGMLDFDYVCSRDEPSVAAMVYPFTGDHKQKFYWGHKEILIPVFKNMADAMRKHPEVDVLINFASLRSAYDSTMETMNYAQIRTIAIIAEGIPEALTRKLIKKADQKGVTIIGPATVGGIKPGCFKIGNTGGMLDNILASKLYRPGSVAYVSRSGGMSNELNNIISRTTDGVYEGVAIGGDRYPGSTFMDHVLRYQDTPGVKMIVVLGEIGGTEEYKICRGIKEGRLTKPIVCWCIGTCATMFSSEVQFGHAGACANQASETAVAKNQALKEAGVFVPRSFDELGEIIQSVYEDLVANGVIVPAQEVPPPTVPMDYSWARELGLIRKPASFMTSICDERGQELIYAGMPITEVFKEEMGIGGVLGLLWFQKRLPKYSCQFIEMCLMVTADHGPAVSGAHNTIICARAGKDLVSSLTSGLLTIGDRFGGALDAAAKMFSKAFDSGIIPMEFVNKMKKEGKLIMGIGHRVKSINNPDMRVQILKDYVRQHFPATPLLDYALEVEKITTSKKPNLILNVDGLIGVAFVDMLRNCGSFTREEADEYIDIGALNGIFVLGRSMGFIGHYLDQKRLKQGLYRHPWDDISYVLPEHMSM

[21] = humans; remark: listed apart in the source
[22] = in vivo; remark: listed apart in the source
[23] = rats; remark: listed apart in the source
[24] = during exercise, untrained men and women

Sequence of glutamate dehydrogenase (P00367 54-558): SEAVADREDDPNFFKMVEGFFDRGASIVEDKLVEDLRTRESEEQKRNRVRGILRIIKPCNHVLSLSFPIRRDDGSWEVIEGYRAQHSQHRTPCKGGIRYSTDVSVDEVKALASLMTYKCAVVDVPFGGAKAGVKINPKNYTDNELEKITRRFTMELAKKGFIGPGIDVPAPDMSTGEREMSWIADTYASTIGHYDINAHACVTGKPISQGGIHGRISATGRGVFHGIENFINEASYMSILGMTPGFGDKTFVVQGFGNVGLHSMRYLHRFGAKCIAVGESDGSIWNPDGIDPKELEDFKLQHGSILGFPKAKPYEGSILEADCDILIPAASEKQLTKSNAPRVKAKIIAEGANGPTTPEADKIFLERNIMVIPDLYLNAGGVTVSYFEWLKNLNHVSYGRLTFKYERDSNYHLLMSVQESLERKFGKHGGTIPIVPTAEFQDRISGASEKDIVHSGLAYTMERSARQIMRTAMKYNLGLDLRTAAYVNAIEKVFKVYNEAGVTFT

Compound: CCOC(=O)C1=C[C@]2(CC)CCCN3CCc4c(n1c1ccccc41)[C@@H]32 [Vinpocetine]
memory [1]: improvement in the memory
brain cell damage [2]: prevent brain cell damage
cognitive performance [3]: cognitive performance improved
cerebral blood flow [4]: increase cerebral blood flow
improvement in chronic cerebral dysfunction [5]: significant improvement

Compound: [Cr] [Chromium]
HDL cholesterol [6]: increase HDL
lean mass (clinical): increase lean mass
body fat (combined with exercise): reduce body fat

Compound: O=C(O[C@@H]1Cc2c(O)cc(O)cc2O[C@@H]1c1cc(O)c(O)c(O)c1)c1cc(O)c(O)c(O)c1 [EGCG, (−)-Epigallocatechin-3-gallate]
glutamate dehydrogenase inhibition [7]: inhibitor of glutamate dehydrogenase
food intake, body weight, cholesterol and triglycerides [8]: effective at reducing food intake, body weight, cholesterol and triglycerides
antioxidant activity [9]: greater than many well known and established antioxidants
COMT inhibition [10]: inhibitor

Compound: C/C=C(\C)C(=O)O[C@@H]1C[C@H]2[C@@H](CC=C3C[C@@H](O[C@H]4C[C@H](OC)[C@H](O[C@H]5C[C@H](OC)[C@H](O[C@@H]6O[C@H](C)[C@@H](O)[C@H](OC)[C@H]6O)[C@@H](C)O5)[C@@H](C)O4)CC[C@@]32C)[C@@]2(O)CC[C@H](C(C)=O)[C@@]12C [Example P57]
ATP [11]: countered the reduction in ATP normally expected from calorie restriction
food intake [12]: reduce food intake

5-alpha-reductase inhibition [13]: inhibiting 5-alpha-reductase
Compound: CC1=C(/C=C/C(C)=C/C=C/C(C)=C/C=C/C=C(C)/C=C/C=C(C)/C=C/C2=C(C)C(=O)[C@@H](O)CC2(C)C)C(C)(C)C[C@H](O)C1=O [Astaxanthin]
safety [14]: safe
exercise-induced muscle damage [15]: attenuate exercise-induced muscle damage

Compound: N[C@@H](Cc1ccc(O)cc1)C(=O)O [Tyrosine]
mental performance [16]: improve
mood and cognitive performance ([17]; periods of stress): improve mood and cognitive performance
blood pressure and cognition ([17]; under stress): reduction in blood pressure in addition to cognitive improvement

Compound: N-olyl-phosphatidyl ethanolamine [NOPE]
body weight [18]: lower body weight
appetite and weight [19]: causes appetite suppression and subsequent weight loss

ATP:citrate lyase inhibition [20]: competitive inhibitor
Compound: O=C(O)CC(O)(C(=O)O)C(O)C(=O)O (stereo not drawn) [HCA, Hydroxycitric acid]
caloric intake [21]: reduce caloric intake
serotonin levels [22]: significantly increased
fatty acid synthesis and appetite [23]: inhibit fatty acid synthesis and repress appetite
fat oxidation [24]: increase fat oxidation during exercise
